Patent publication US20250163052A1, “cGAS INHIBITORS AND USES THEREOF” (Cornell University, priority 2022, published 2025)

Legend:
THP1 cells = assay: THP1-Dual cells, cell viability (CellTiter-Glo); assay type: cell-based
Method in brief: (§1)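 THP1-Dual cells were treated with compounds at various dilutions for 4 h, then transfected with DNA (2 ug/ml) using lipofectamine and incubated overnight. Supernatant Ifnb reporter was read with Quantiluc and nfkb reporter with Quantiblue; viability was measured by CellTiter-Glo.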

m-cGAS = m-cGAS (Mus musculus, UniProt Q8C6L5); assay: Cell-free mouse cGAS enzyme inhibition assay (ATP depletion, Kinase-Glo Max); assay type: biochemical; settings: 1 h; for inhibition at 1 µM: read-out: m-cGAS, conc. 1 μM; for inhibition at 10 µM: read-out: m-cGAS, conc. 10 μM
Chain of m-cGAS (Q8C6L5 whole entry): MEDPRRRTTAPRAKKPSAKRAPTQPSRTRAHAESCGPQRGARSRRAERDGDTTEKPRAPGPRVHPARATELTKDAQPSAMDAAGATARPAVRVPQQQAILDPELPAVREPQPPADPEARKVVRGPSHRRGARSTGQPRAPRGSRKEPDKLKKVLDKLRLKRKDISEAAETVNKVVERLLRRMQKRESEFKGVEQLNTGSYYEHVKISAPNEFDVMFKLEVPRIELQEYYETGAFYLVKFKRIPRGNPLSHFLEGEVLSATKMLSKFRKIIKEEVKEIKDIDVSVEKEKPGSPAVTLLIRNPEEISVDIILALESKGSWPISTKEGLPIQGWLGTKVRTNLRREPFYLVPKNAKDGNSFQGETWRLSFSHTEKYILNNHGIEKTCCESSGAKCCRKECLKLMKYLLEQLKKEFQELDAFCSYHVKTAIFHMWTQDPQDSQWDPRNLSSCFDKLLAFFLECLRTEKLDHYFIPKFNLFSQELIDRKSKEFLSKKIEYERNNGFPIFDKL

h-cGAS = h-cGAS (Homo sapiens, UniProt Q8N884); assay: Cell-free human cGAS enzyme inhibition assay (ATP depletion, Kinase-Glo Max); assay type: biochemical; settings: 3 h; for inhibition at 1 µM: read-out: h-cGAS, conc. 1 μM; for inhibition at 10 µM: read-out: h-cGAS, conc. 10 μM
Chain of h-cGAS (Q8N884 whole entry): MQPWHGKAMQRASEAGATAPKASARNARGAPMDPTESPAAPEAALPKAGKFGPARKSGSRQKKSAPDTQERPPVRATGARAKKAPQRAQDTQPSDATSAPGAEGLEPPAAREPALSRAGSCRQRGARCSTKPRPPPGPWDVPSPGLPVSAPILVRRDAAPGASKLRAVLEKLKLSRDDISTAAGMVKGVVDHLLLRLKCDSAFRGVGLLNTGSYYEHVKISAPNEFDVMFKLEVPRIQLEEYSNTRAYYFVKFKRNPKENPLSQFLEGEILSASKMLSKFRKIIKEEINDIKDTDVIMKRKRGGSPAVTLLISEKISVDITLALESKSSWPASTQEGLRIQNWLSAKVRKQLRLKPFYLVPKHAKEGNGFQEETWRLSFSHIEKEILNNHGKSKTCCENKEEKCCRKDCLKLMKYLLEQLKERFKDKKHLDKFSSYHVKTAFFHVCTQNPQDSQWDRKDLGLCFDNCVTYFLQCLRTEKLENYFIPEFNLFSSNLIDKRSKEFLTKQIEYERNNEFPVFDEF

NFkB-SEAP = assay: THP1-Dual cells transfected with DNA, nfkb expression (Quantiblue); assay type: cell-based; settings: Homo sapiens; for inhibition at 10 µM: THP-1, 10 μM; for inhibition at 30 µM: THP-1, 30 μM
Experimental: Evaluation of active cGAS inhibitors in THP1 cells (Table 3). Cellular activity of all compounds (in Table 3) was determined using THP1-Dual™ cells as described (Lama et. al., 2019). THP1-Dual™ cells (Invivogen) (50000 cells in 100 μl media) were seeded into each well of a 96-well plate and treated with compounds at various dilution for 4 hours. Subsequently, cells were transfected with DNA (2 ug/ml) and lipofectamine and incubate the cells were incubated overnight. Ifnb expression was measured in cell supernatant using Quantiluc, nfkb expression was determined using Quantiblue, and cell viability using Promega® CellTiter-Glo®.

IFNB = assay: THP1-Dual cells transfected with DNA, Ifnb expression (Quantiluc); assay type: cell-based; settings: Homo sapiens; for inhibition at 10 µM: THP-1, 10 μM; for inhibition at 30 µM: THP-1, 30 μM
Method in brief: as §1

| Compound | Cell viability 10 μM (THP1 cells) | Cell viability 30 μM (THP1 cells) | inhibition at 1 µM (m-cGAS) [%] | inhibition at 10 µM (m-cGAS) [%] | inhibition at 1 µM (h-cGAS) [%] | inhibition at 10 µM (h-cGAS) [%] | inhibition at 10 µM (NFkB-SEAP) [%] | inhibition at 30 µM (NFkB-SEAP) [%] | inhibition at 10 µM (IFNB) [%] | inhibition at 30 µM (IFNB) [%] |
| --- | --- | --- | --- | --- | --- | --- | --- | --- | --- | --- |
| NCC(=O)N1CCc2c(sc3c(Cl)c(Cl)cc(-c4ccsc4)c23)C1 [Compound 82] | +++ (+, ++, and +++ mean the compound respectively shows 25-49%; 50-74%; or 75-100% viability to cells) | + (+, ++, and +++ mean the compound respectively shows 25-49%; 50-74%; or 75-100% viability to cells) | 0 to 24 | 50 to 74 | 0 to 24 | 50 to 74 | 75 to 100 | 75 to 100 | 50 to 74 | 75 to 100 |
| Cn1ccc(-c2cc(Cl)c(Cl)c3sc4c(c23)CCN(C(=O)CN)C4)n1 [Compound 83] | ++ (+, ++, and +++ mean the compound respectively shows 25-49%; 50-74%; or 75-100% viability to cells) | − (Cell viability <24%, in THP1 cells is expressed as “−”) | 25 to 49 | 75 to 100 | 25 to 49 | 50 to 74 | 75 to 100 | 75 to 100 | 50 to 74 | 75 to 100 |
| NCC(=O)N1CCc2c(sc3c(Cl)c(Cl)cc(-c4nccs4)c23)C1 [Compound 84] | +++ (+, ++, and +++ mean the compound respectively shows 25-49%; 50-74%; or 75-100% viability to cells) | − (Cell viability <24%, in THP1 cells is expressed as “−”) | 0 to 24 | 50 to 74 | 25 to 49 | 75 to 100 | < 24 | 50 to 74 | 25 to 49 | 75 to 100 |
| NCC(=O)N1CCc2c(sc3c(Cl)c(Cl)cc(-c4ccccn4)c23)C1 [Compound 86] | +++ (+, ++, and +++ mean the compound respectively shows 25-49%; 50-74%; or 75-100% viability to cells) | − (Cell viability <24%, in THP1 cells is expressed as “−”) | 0 to 24 | 25 to 49 | 0 to 24 | 50 to 74 | < 24 | 50 to 74 | < 24 | 75 to 100 |
| NCC(=O)N1CCc2c(sc3c(Cl)c(Cl)cc(-c4cncs4)c23)C1 [Compound 87] | − (Cell viability <24%, in THP1 cells is expressed as “−”) | − (Cell viability <24%, in THP1 cells is expressed as “−”) | 25 to 49 | 75 to 100 | 0 to 24 | 50 to 74 | 50 to 74 | 75 to 100 | 75 to 100 | 75 to 100 |
| NCC(=O)N1CCc2c(sc3c(Cl)c(Cl)cc(-c4ncccn4)c23)C1 [Compound 89] | +++ (+, ++, and +++ mean the compound respectively shows 25-49%; 50-74%; or 75-100% viability to cells) | ++ (+, ++, and +++ mean the compound respectively shows 25-49%; 50-74%; or 75-100% viability to cells) | 0 to 24 | 25 to 49 | 0 to 24 | 50 to 74 | < 24 | 50 to 74 | < 24 | 50 to 74 |
| NCC(=O)N1CCc2c(sc3c(Cl)c(Cl)cc(-c4cnccn4)c23)C1 [Compound 90] | +++ (+, ++, and +++ mean the compound respectively shows 25-49%; 50-74%; or 75-100% viability to cells) | − (Cell viability <24%, in THP1 cells is expressed as “−”) | 25 to 49 | 50 to 74 | 0 to 24 | 50 to 74 | 25 to 49 | 75 to 100 | 25 to 49 | 50 to 74 |
| Cc1csc(-c2cc(Cl)c(Cl)c3sc4c(c23)CCN(C(=O)CN)C4)n1 [Compound 91] | ++ (+, ++, and +++ mean the compound respectively shows 25-49%; 50-74%; or 75-100% viability to cells) | − (Cell viability <24%, in THP1 cells is expressed as “−”) | 0 to 24 | 50 to 74 | 25 to 49 | 50 to 74 | 25 to 49 | – | 50 to 74 | – |
| Cn1ncc(-c2cc(Cl)c(Cl)c3sc4c(c23)CCN(C(=O)CN)C4)n1 [Compound 92] | ++ (+, ++, and +++ mean the compound respectively shows 25-49%; 50-74%; or 75-100% viability to cells) | − (Cell viability <24%, in THP1 cells is expressed as “−”) | 25 to 49 | 75 to 100 | 25 to 49 | 50 to 74 | 75 to 100 | 75 to 100 | 75 to 100 | 75 to 100 |
| Cn1cnc(-c2cc(Cl)c(Cl)c3sc4c(c23)CCN(C(=O)CN)C4)c1 [Compound 93] | +++ (+, ++, and +++ mean the compound respectively shows 25-49%; 50-74%; or 75-100% viability to cells) | − (Cell viability <24%, in THP1 cells is expressed as “−”) | 0 to 24 | 50 to 74 | 0 to 24 | 50 to 74 | < 24 | 50 to 74 | < 24 | 75 to 100 |
| NCC(=O)N1CCc2c(sc3c(Cl)c(Cl)cc(-n4cccn4)c23)C1 [Compound 94] | +++ (+, ++, and +++ mean the compound respectively shows 25-49%; 50-74%; or 75-100% viability to cells) | – | 0 to 24 | 50 to 74 | 25 to 49 | 50 to 74 | < 24 | – | < 24 | – |
| CNc1cnn(-c2cc(Cl)c(Cl)c3sc4c(c23)CCN(C(=O)CN)C4)c1 [Compound 95] | +++ (+, ++, and +++ mean the compound respectively shows 25-49%; 50-74%; or 75-100% viability to cells) | +++ (+, ++, and +++ mean the compound respectively shows 25-49%; 50-74%; or 75-100% viability to cells) | – | 50 to 74 | – | 50 to 74 | 25 to 49 | 25 to 49 | < 24 | 25 to 49 |
| Cc1ccn(-c2cc(Cl)c(Cl)c3sc4c(c23)CCN(C(=O)CN)C4)n1 [Compound 96] | +++ (+, ++, and +++ mean the compound respectively shows 25-49%; 50-74%; or 75-100% viability to cells) | +++ (+, ++, and +++ mean the compound respectively shows 25-49%; 50-74%; or 75-100% viability to cells) | – | 25 to 49 | 0 to 24 | 25 to 49 | < 24 | < 24 | < 24 | < 24 |
| NCC(=O)N1CCc2c(sc3c(Cl)c(Cl)cc(-n4ccnc4)c23)C1 [Compound 97] | +++ (+, ++, and +++ mean the compound respectively shows 25-49%; 50-74%; or 75-100% viability to cells) | +++ (+, ++, and +++ mean the compound respectively shows 25-49%; 50-74%; or 75-100% viability to cells) | – | 50 to 74 | – | 25 to 49 | 25 to 49 | 75 to 100 | 50 to 74 | 75 to 100 |
